Measured values as given in patent publication US20260335278A1, “PHYTOCHEMICAL FORMULATIONS FOR TREATING STRESS AND ANXIETY” (GBS GLOBAL BIOPHARMA, INC., priority 2022, published 2026).
Entries after “also recorded” stand apart in the source; their conditions may differ.

Key:
zebrafish larvae [1] = test: Light/Dark Stress Response (5 min alternating pulses of dark and light for 30 min); assay type: in vivo; parameters: key to Light/Dark Stress Response: +: statistically significant increase; −−: statistically significant decrease
Description: (§1) The validation process for the phytochemicals derived from Piper methysticum, other Piper plant family members, and non-Piper medicinal plants and fungi includes testing the selected phytochemical drug candidates as singles, doubles, and triples in two complementary zebrafish models of stress and anxiety. These two complementary assays are the Light/Dark Stress Response test that is illustrated in FIG. 5 (after the 90 min study of the effect of the compounds and mixtures on Baseline Activity) and the Thigmotaxis assay, as illustrated in FIG. 61A and FIG. 61B, which is also known as the wall flower effect, like the social anxiety of humans. Zebrafish larvae show a clear and distinct pattern of swimming in response to rapidly alternating light and dark conditions in the Light/Dark Response testing, which trigger a flight or fight response and darting behavior indicative of great stress and anxiety. The Light/Dark testing uses a control group to automatically track, using an automatic tracking device, the larval behavior in response to dark to light conditions. The thigmotaxis assay also uses automatic tracking and appropriate controls. In multiple embodiments additional Zebrafish larvae are given various concentrations of the selected phytochemicals from Table 1 for tracking Light/Dark Responses or Thigmotactic behavioral changes in the treated zebrafish larvae. Table 2A and Table 2B summarize the results from both assays when the individual phytochemicals are exposed to the: Baseline Activity (90 minutes in the light), Light/Dark Stress Response (5 min alternating pulses of dark and light for 30 min.), and Thigmotaxis Activity (% of time in the light center of the chamber (anxiety inducing) versus % of time near the dark (soothing) wall).
(§2) The present invention includes a process to discover new pharmaceutical medicines for the treatment of stress, anxiety and anxiety-related disorders in a human. The preclinical testing included the effects of these 14 individual phytochemicals and 300 ratio-controlled mixtures of these phytochemicals in assays measuring the behavioral stress response patterns of zebrafish larvae. Larval behavior is assessed with at least one functional assay of stress or anxiety following acute exposure to each phytochemical sample formulated. Stereotypical basal activity patterns of zebrafish will be assessed to determine the potential side effects of the phytochemical samples in a concentration dependent manner for each compound on two zebrafish models of stress and anxiety: 1) the Light/Dark Stress Response (5 min alternating pulses of light and dark) in small to med well plates (96-48 well plates), and 2) Thigmotaxis assays in large well plates with 50% of the swimming surface colored dark around the margins of the well in large (24-12 well plates) will be assessed for their efficacy in testing the phytochemicals.
(§3) The discovery methods of the present invention include testing the effects of up to 20 phytochemicals and 40 mixtures of the phytochemicals on behavioral stress response patterns of zebrafish larvae. Larval behavior was assessed with an automated video tracking system following acute exposure to each phytochemical sample. Stereotypical basal activity patterns of larvae were assessed to determine the concentration dependent effect of each compound. A zebrafish model of thigmotaxis in large well plates (24-12 well plates) was assessed for their efficacy in testing the phytochemicals. In the discovery method, fertilized eggs were kept on a re-circulating system in baskets until use at 120 hpf (5 days). At 120 hpf, larvae were loaded into 48 well plates in buffered fish media and acclimated to the plate in a heated light incubator for 2 hours. Larvae were acutely exposed with drug or controls at a 10× concentration and the plate was quickly transferred to a behavioral tracking system. Acute behavioral run was 90 minutes (baseline activity) in the light followed by alternating 5 minute bins (total 2 hours). […]

[2] = Pharmacokinetics of piperine acting alone; assay type: in vivo
zebrafish larvae [3] = test: Thigmotaxis assay; assay type: in vivo; parameters: key: +: statistically significant increase; −−: statistically significant decrease
Description: as §1, §2, §3

zebrafish larvae [4] = test: Baseline activity / baseline exposure (90 min continuous light), zebrafish larvae; assay type: in vivo; parameters: key to Baseline Exposure: +: statistically significant increase; −−: statistically significant decrease
Description: as §1, §2, §3

zebrafish larvae [5] = test: Zebrafish models of stress and anxiety, overall verdict (Light/Dark Stress Response and thigmotaxis); assay type: in vivo; conditions: for Anti-Anxiety Potential?: API used singly
Description: as §1
Additionally, testing is done with mixtures of these same selected phytochemicals from P. methysticum and other plants selected by our in silico analyses. The testing results are analyzed using artificial intelligence systems to rank effectiveness in reducing the Light/Dark response and thigmotactic behavior for the
The A1 enabled drug discovery platform database search data was evaluated to select the best drug candidates from: A Piper methysticum, B. within the Piper plant family (>200 Piper spp.), or C. traditional medicines to begin testing […] (API) singles, doubles, and triples in two complementary zebrafish models of anxiety light/dark startle response testing and thigmotaxis assays.
as §2
The discovery methods of the present invention include testing the effects of up to 20 phytochemicals and 40 mixtures of the phytochemicals on behavioral stress response patterns of zebrafish larvae. Larval behavior was assessed with an automated video tracking system following acute exposure to each phytochemical sample. […]

MAO-B = conditions: cited from earlier work
MAO-A = conditions: cited from earlier work

pharmacokinetics [2]	Structure (SMILES)	Light/Dark Stress Response (zebrafish larvae [1]; High)	Light/Dark Stress Response (zebrafish larvae [1]; Med)	Light/Dark Stress Response (5 min light/dark pulses) (zebrafish larvae [1]; vehicle 1% MeOH)	Thigmotaxis Model (zebrafish larvae [3]; High)	Baseline Exposure (zebrafish larvae [4]; High)	Baseline Exposure (zebrafish larvae [4]; Low)	effect on the baseline activity (zebrafish larvae [4]; acting alone)	Anti-Anxiety Potential? (zebrafish larvae [5])	Therapeutic Potential (zebrafish larvae [5]; vehicle 1% MeOH)	Light/Dark Stress Response (5 min light/dark pulses) (zebrafish larvae [1]; vehicle 0.5% MeOH)	Thigmotaxis Model (zebrafish larvae [3]; Med)	Approx. Dose (cell or animal experiments), MAO-B (MAO-B)	Baseline Exposure (zebrafish larvae [4]; Med)	baseline Activity (90 min light) (zebrafish larvae [4]; vehicle 0.5% MeOH)	baseline Activity (90 min light) (zebrafish larvae [4]; vehicle 1% MeOH)	Therapeutic Potential (zebrafish larvae [5]; vehicle 0.5% MeOH)	Approx. Dose (cell or animal experiments), MAO-A (MAO-A)
positive results	O=C(/C=C/C=C/c1ccc2c(c1)OCO2)N1CCCCC1 [piperine]	−−	−−	stress response is reduced	−−	+	−−	virtually no effect on the baseline activity	Yes	YES-top pick								
	COc1ccc(/C=C/c2cc(OC)cc(=O)o2)cc1 [yangonin]	−−		stress response is reduced	−−	+	+		Yes	Yes	stress response is reduced	−−	MAO-B 0.085 μM	+	baseline activity is close to controls; also recorded: (slight increase initially)	baseline activity is close to controls; also recorded: (slight increase initially)	Yes	MAO-A1.29 μM,
